Assay results published in article PMC10535816, “May 1,2-Dithiolane-4-carboxylic Acid and Its Derivatives Serve as a Specific Thioredoxin Reductase 1 Inhibitor?” (Molecules, 2023).

Target: T1, TrxR1 (thioredoxin reductase 1) (Rattus norvegicus, UniProt O89049)
T1 construct: gene Txnrd1
T1 sequence (O89049 1-499): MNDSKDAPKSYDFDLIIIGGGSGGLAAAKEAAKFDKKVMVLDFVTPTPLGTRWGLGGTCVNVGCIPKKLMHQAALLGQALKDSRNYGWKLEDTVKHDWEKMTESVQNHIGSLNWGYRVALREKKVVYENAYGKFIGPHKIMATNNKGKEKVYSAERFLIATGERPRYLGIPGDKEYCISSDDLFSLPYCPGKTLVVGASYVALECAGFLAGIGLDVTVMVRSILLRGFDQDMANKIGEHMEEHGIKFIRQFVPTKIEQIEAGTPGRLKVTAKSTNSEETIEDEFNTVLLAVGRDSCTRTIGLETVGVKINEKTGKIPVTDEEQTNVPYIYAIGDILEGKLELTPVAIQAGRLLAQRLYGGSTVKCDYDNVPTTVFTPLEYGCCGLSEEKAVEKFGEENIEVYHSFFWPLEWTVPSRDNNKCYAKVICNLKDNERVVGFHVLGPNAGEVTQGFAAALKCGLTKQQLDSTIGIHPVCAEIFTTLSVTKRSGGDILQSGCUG
Test: biochemical

| Compound | IC50 |
| --- | --- |
| CC[C@H](C)[C@H](NC(=O)C1CSSC1)C(=O)O [2g, 2-(1,2-Dithiolane-4-carboxamido)-3-methylpentanoic acid] | 186 ± 14.9 µM |
| O=C(Nc1cc2ccccc2oc1=O)C1CSSC1 [2j, N-(2-Oxo-2H-chromen-3-yl)-1,2-dithiolane-4-carboxamide] | 5.3 ± 0.4 µM |
| O=C(Nc1ccc2oc(=O)ccc2c1)C1CSSC1 [2k, N-(2-oxo-2H-chromen-6-yl)-1,2-dithiolane-4-carboxamide] | 36.3 ± 2.9 µM |
